Measured values from patent US4101647A, “Oral dosage form for X-ray contrast media containing a pharmaceutically acceptable base and method of use thereof” (Schering Aktiengesellschaft, priority 1975, dated 1978).

Legend:
[1] = Blood levels of contrast medium of four patient groups after oral administration (3 g, microcrystal suspension) with various additional treatments; details: sodium bicarbonate given orally with the contrast agent
Experimental: Suspension with Various Additional Treatments
III = 10 mg. of Metoclopramide i.v.; and
IV = g. of Sodium Bicarbonate)

[2] = clinical; details: human, in vivo, po
[3] = human, in vivo

half-life [2] | Cmax ([2]; Cmax (maximum concentration in blood)) | Tmax ([2]; time after administration at which the maximum blood level is attained) | resorption half life [3] | blood level within 30 minutes after ingestion, on the average, as % of the maximum value ([3]; 30 min) | Cmax (% of dose in total blood volume) ([3]; po) | tmax (time of maximum blood level) ([3]; po) | Compound | effect of simultaneous oral administration on resorption of the contrast agent [1]
 |  |  |  |  |  |  | O=C(O)O [sodium bicarbonate] | accelerates resorption of the contrast agent in a statistically significant manner
2.3 ± 1.4 h | 114 ± 45 µg/mL | ≤ 0.9 h | 0.3 ± 0.1 h | 80% | 23 ± 8 % of Dose in Bl. Vol. | 2.2 ± 0.4 h | CCN(C(=O)CCC(=O)O)c1c(I)cc(I)c(NC)c1I [succinic acid mono-2,4,6-triiodo-3-methylamino-N-ethylanilide] | 
